Laboratory results taken from ChEMBL document CHEMBL2073910, “Molecular cloning and functional characterization of the mouse organic-anion-transporting polypeptide 1 (Oatp1) and mapping of the gene to chromosome X” (Biochem J, 2000).

T1: Solute carrier organic anion transporter family member 1A1 (Mus musculus, UniProt Q9QXZ6)
T1 sequence (Q9QXZ6 whole entry): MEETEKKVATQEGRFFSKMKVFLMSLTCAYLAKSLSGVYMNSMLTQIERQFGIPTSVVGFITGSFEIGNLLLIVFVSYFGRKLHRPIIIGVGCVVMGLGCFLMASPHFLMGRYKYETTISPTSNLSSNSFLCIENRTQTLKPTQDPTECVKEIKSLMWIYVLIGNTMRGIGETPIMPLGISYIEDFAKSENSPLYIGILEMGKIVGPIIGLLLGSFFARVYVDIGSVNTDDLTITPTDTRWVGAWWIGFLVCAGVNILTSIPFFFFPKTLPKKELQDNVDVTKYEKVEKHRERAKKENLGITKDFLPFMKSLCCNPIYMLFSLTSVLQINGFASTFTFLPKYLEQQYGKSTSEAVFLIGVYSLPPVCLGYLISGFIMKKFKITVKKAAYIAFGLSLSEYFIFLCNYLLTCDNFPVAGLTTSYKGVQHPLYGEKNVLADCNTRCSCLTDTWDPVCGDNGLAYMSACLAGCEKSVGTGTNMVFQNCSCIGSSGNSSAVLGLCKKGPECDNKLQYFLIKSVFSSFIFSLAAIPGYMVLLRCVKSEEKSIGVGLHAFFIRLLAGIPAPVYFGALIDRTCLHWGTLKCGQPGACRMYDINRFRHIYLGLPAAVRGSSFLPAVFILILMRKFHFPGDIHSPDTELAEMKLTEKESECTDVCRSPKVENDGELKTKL


What was measured:
[1] = biological target: T1, Solute carrier organic anion transporter family member 1A1; assay: (§1) TP_TRANSPORTER: uptake in Xenopus laevis oocytes; format: functional, cell-based; details: oocyte
[2] = substrate: C[C@]12CC[C@@H]3c4ccc(OS(=O)(=O)O)cc4CC[C@H]3[C@@H]1CCC2=O; assay: as §1; format: functional, cell-based, Oocyte

Row | Molecule | Activity [1] | Km [2] [µM]
1 | C[C@@H]1O[C@@H](O[C@H]2C[C@@H](O)[C@]3(CO)[C@H]4[C@H](O)C[C@]5(C)[C@@H](C6=CC(=O)OC6)CC[C@]5(O)[C@@H]4CC[C@]3(O)C2)[C@H](O)[C@H](O)[C@H]1O [OUABAIN] | substrate [+] | 
2 | O=C1OC(c2ccc(O)c(S(=O)(=O)[O-])c2)(c2ccc(O)c(S(=O)(=O)[O-])c2)c2c(Br)c(Br)c(Br)c(Br)c21.[Na+].[Na+] [SULFOBROMOPHTHALEIN SODIUM] | substrate [+] | 
3 | GADOXETATE | substrate [+] | 
4 | Solute carrier organic anion transporter family member 1A1 (Mus musculus) (protein) MEETEKKVATQEGRFFSKMKVFLMSLTCAYLAKSLSGVYMNSMLTQIERQFGIPTSVVGFITGSFEIGNLLLIVFVSYFGRKLHRPIIIGVGCVVMGLGCFLMASPHFLMGRYKYETTISPTSNLSSNSFLCIENRTQTLKPTQDPTECVKEIKSLMWIYVLIGNTMRGIGETPIMPLGISYIEDFAKSENSPLYIGILEMGKIVGPIIGLLLGSFFARVYVDIGSVNTDDLTITPTDTRWVGAWWIGFLVCAGVNILTSIPFFFFPKTLPKKELQDNVDVTKYEKVEKHRERAKKENLGITKDFLPFMKSLCCNPIYMLFSLTSVLQINGFASTFTFLPKYLEQQYGKSTSEAVFLIGVYSLPPVCLGYLISGFIMKKFKITVKKAAYIAFGLSLSEYFIFLCNYLLTCDNFPVAGLTTSYKGVQHPLYGEKNVLADCNTRCSCLTDTWDPVCGDNGLAYMSACLAGCEKSVGTGTNMVFQNCSCIGSSGNSSAVLGLCKKGPECDNKLQYFLIKSVFSSFIFSLAAIPGYMVLLRCVKSEEKSIGVGLHAFFIRLLAGIPAPVYFGALIDRTCLHWGTLKCGQPGACRMYDINRFRHIYLGLPAAVRGSSFLPAVFILILMRKFHFPGDIHSPDTELAEMKLTEKESECTDVCRSPKVENDGELKTKL |  | 5
